# Measured values reported in US20250066310A1, “MULTI-SUBSTITUTED URACIL DERIVATIVE AND PREPARATION METHOD THEREFOR AND APPLICATION THEREOF” (HANGZHOU ADAMERCK PHARMLABS INC., priority 2021, published 2025).
# Marks after values point to notes of the source that are not given here.
# What was measured:
# ICR mice = experiment: Effect on in vivo bleeding time in mice (tail cut); settings: 100 mg/kg i.g. once daily for 4 days
# Protocol: A normal control group (blank), positive control group (clopidogrel) and experimental groups were set up with 10 ICR mice (male, weighed about 25 g) in each group. Animals in each group were administered the corresponding drug solution by oral gavage (i.g.) at 0.1 ml/10 g body weight, and the blank control group was given distilled water, once daily for 4 days. On the 4th day, 1 h after the administration of the drug, the animals were anesthetized by intraperitoneal injection of sodium barbiturate at a dose of about 50 mg/kg, and 20 min later, the tails of the mice were cut at a distance of 3 mm from the tip of the tail, and at regular intervals, absorbent paper was used to dip the blood at the severed tails until no blood exuded, which was recorded as the bleeding time, and the results of the experiment were shown in Table 2.
# Calculation equation for prolongation of bleeding time: […]
# [1] = test system: rats with focal cerebral ischemia (MCAO)/reperfusion; experiment: Prophylactic administration, cerebral ischemia-reperfusion injury (MCAO/R) in rats; assay type: in vivo; settings: Mean ± SD, n = 8; for Cerebral infarction rate (%): 3 days before MCAO/R, 24 h after reperfusion; for behavioral score / cerebral water content (%): MCAO/R
# Protocol: Experimental methods: SD rats were randomly divided into 6 groups, set as sham group, model control group, positive control drug ozagrel (6 mg/kg) group, and test drug compound 1-1 high (9 mg/kg), medium (3 mg/kg), and low (1 mg/kg) dose group. The administered groups were preadministered by tail vein injection, and the sham and model control groups were given an equal volume of saline, once a day for 3 consecutive days. Ten minutes after the last administration, the rat MCAO/R model was established, and reperfusion was performed 2 h after ischemia. 24 h after MCAO reperfusion, neurobehavioral scores were performed to determine the neurological function of rats; 2,3,5-triphenyltetrazolium chloride (TTC) staining method was used to determine the rate of cerebral infarction and cerebral water content in rats.
# [2] = test system: rats with myocardial ischemia-reperfusion injury; experiment: Myocardial ischemia-reperfusion injury caused by coronary artery ligation in rats; assay type: in vivo; settings: x ± s, n = 8; for Pathological Score: myocardium
# Protocol: Experimental Methods: A model of myocardial ischemia/reperfusion (MI/R) injury caused by coronary artery ligation was established in rats, and animals were grouped into high-dose (20 mg/kg), medium-dose (10 mg/kg), low-dose (5 mg/kg) of the test drug, clopidogrel (7.5 mg/kg), sham, and model groups. Equal volume of 0.5% CMC-Na was administered at 0.5 ml/100 g body weight in both sham and model groups. The drug was administered by gavage (i.g.) once a day for 5 consecutive days. Modeling was performed 30 min after the last administration, and after modeling, 8 successfully modeled rats were selected from each group for subsequent experiments. The sham group was placed a wire under the left anterior descending branch of the coronary artery according to the model preparation method without ligation, and the other groups were modeled according to the model preparation method. The effects of the test drugs on the cardiac infarction rate and the biochemical indexes of creatine kinase (CK), lactate dehydrogenase (LDH), malondialdehyde (MDA), and superoxide dismutase (SOD) in plasma were detected, and TTC staining of the heart was performed to detect the effects of the test drugs on the area of myocardial infarction in MI/R rats.
# [3] = test system: rats with autologous thrombus and thrombin-induced cerebral ischemic injury; experiment: Ischemic brain injury induced by autologous thrombus and thrombin in rats (i.v., alone or with urokinase); assay type: in vivo, SD rats; settings: n = 10
# Protocol: Experimental Methods: A model of cerebral ischemic injury in SD rats was prepared by embolizing the middle cerebral artery of rats with autologous thrombus and thrombin via the external carotid artery to the internal carotid artery and the rats were randomly divided into 5 groups according to behavioral scores, a sham group (only the external carotid artery was isolated); a model-control group (saline was given to both groups in equal volume); urokinase (5000 U/kg) group; compound 1-1 ([…]) group; with 20 animals in each group (10 for detecting the rate of cerebral infarction, and the other 10 for pathological testing). Each group was administered slowly in the tail vein (1 ml per minute) 2 h after modeling, and the decrease in blood flow was monitored after thrombin injection and 120 min after administration. Neurobehavioral scoring was performed on the rats after 24 h to determine the neurological function of the rats; 2,3,5-triphenyltetrazolium chloride (TTC) staining was used to determine the rate of cerebral infarction and cerebral water content, and hematoxylin-eosin (HE) staining was used to observe the pathological damage of the brain in rats administered with the drug 2 h after cerebral ischemia.
# [4] = test system: acute inflammatory response caused by ellagic acid (serum cytokines); experiment: Antibody microarray detection of serum factors in ellagic acid model mice; assay type: in vivo, ICR mice; set-up: TNFa / IL-6 / IL-1b / IL-5 / IL-13 / IL-1α / IL-1β / IL-2 / IL-3 / IL-4 / IFNg / CD40: unit not given here
# Protocol: Experimental methods: ICR male mice, weighed about 25 g, were randomly divided into four groups: normal group, ellagic acid model group, 1-1 group, and 1-22 group, with four mice in each group. Mice in 1-1 group and 1-22 group were given 1-1, 100 mg/kg and 1-22, 100 mg/kg by gavage once a day respectively. 1 h after the third administration, except for the normal control group, the other three groups of mice were injected into the tail vein with 0.10 mL/10 g of 0.3% ellagic acid saline solution, and 1 h after injection, whole blood was collected from each animal, and centrifuged (3,000 rpm/min) for 10 min after 30 min of standing, and then centrifuged to obtain the serum. The serum from each group of animal was mixed in an EP tube, transported at −80° C., and sent for antibody microarray detection.
# [5] = Table 16, pooled serum, 100 mg/kg by gavage
# [6] = Table 17, pooled serum, 100 mg/kg by gavage
# [7] = Table 18, pooled serum, 100 mg/kg by gavage
# [8] = Table 19, pooled serum, 100 mg/kg by gavage
smiles,measurement,setting,value
CCOC(=O)CCNC(=O)CCNc1cc(=O)n(C)c(=O)n1C [Compound 1-1],Bleeding time prolongation (%),ICR mice,−8.89%
same,Cerebral infarction rate (%),[1]; 1 mg/kg tail vein,25.20 ± 9.71%
same,behavioral score,[1]; 1 mg/kg tail vein,2.63 ± 0.74
same,cerebral water content (%),[1]; 1 mg/kg tail vein,81.81 ± 0.78%
same,Cerebral infarction rate (%),[1]; 3 mg/kg tail vein,22.74 ± 9.12%
same,behavioral score,[1]; 3 mg/kg tail vein,2.00 ± 0.76
same,cerebral water content (%),[1]; 3 mg/kg tail vein,81.57 ± 0.87%
same,Cerebral infarction rate (%),[1]; 9 mg/kg tail vein,17.22 ± 9.35 %
same,behavioral score,[1]; 9 mg/kg tail vein,1.50 ± 0.53
same,cerebral water content (%),[1]; 9 mg/kg tail vein,80.94 ± 0.92 %
same,Cardiac infarction rate (%),[2]; 5 mg/kg i.g. once a day for 5 days,12.12 ± 4.45 %
same,Cardiac infarction rate (%),[2]; 10 mg/kg i.g. once a day for 5 days,10.99 ± 2.39 %
same,Cardiac infarction rate (%),[2]; 20 mg/kg i.g. once a day for 5 days,7.27 ± 1.91**^ΔΔ %
same,Pathological Score,[2]; 5 mg/kg i.g.,2.00 ± 0.53
same,Pathological Score,[2]; 10 mg/kg i.g.,1.88 ± 0.83
same,Pathological Score,[2]; 20 mg/kg i.g.,1.75 ± 0.71
same,CK (U/mL),"[2]; plasma, 5 mg/kg i.g.",0.33 ± 0.15 U/mL
same,LDH (U/L),"[2]; plasma, 5 mg/kg i.g.",5406.70 ± 458.93*^ΔΔ U/L
same,MDA,"[2]; plasma, 5 mg/kg i.g.",13.23 ± 2.89 nmol/mL
same,SOD (U/mL),"[2]; plasma, 5 mg/kg i.g.",28.29 ± 1.24 U/mL
same,CK (U/mL),"[2]; plasma, 10 mg/kg i.g.",0.27 ± 0.11 U/mL
same,LDH (U/L),"[2]; plasma, 10 mg/kg i.g.",3732.06 ± 573.02**^ΔΔ U/L
same,MDA (nmol/mL),"[2]; plasma, 10 mg/kg i.g.",5.47 ± 1.71**^ΔΔ nmol/mL
same,SOD (U/mL),"[2]; plasma, 10 mg/kg i.g.",23.99 ± 2.80 U/mL
same,CK (U/mL),"[2]; plasma, 20 mg/kg i.g.",0.08 ± 0.047 U/mL
same,LDH (U/L),"[2]; plasma, 20 mg/kg i.g.",4366.03 ± 782.76**^ΔΔ U/L
same,MDA (nmol/mL),"[2]; plasma, 20 mg/kg i.g.",8.77 ± 2.19**^ΔΔ nmol/mL
same,SOD (U/mL),"[2]; plasma, 20 mg/kg i.g.",41.02 ± 2.33 U/mL
same,Cerebral infarction rate,"[3]; 9 mg/kg i.v., TTC staining, mean ± S.D.",14.99 ± 10.91
same,behavioral score,"[3]; 9 mg/kg i.v., after 24 h, Mean ± SD",1.70 ± 0.82
same,cerebral water content (%),"[3]; 9 mg/kg i.v., mean ± S.D.",80.32 ± 0.97 %
same,Percentage decrease two hours after administration (%),"[3]; cerebral blood flow, 9 mg/kg i.v. 2 h after modeling, Mean ± SD",29.24 ± 2.67 %
same,Percentage decrease after thrombin injection (%),"[3]; cerebral blood flow, before administration, 9 mg/kg group, Mean ± SD",39.18 ± 4.75%
same,Pathology Score,"[3]; cerebral ischemic areas, 9 mg/kg i.v., mean ± SD",2.20 ± 1.01
same,IL-6,[4]; [5],"18,375.64*"
same,RANTES/ccl5,[4]; [5],"2,825.89*"
same,TNFa,[4]; [5],386.79
same,IL-1b,"[4]; Table 16, pooled serum, 100 mg/kg by gavage once a day x3, 1 h after ellagic acid",312.69
same,IL-1α,[4]; [6],"1,118.99*"
same,IL-1β,[4]; [6],312.69
same,IL-2,[4]; [6],565.56
same,IL-3,[4]; [6],"1,106.55"
same,IL-4,[4]; [6],"1,367.20"
same,IL-5,[4]; [6],285.74*
same,IL-6,[4]; [6],"18,375.64*"
same,IL-13,[4]; [6],800.30*
same,Eotaxin/CCL11,[4]; [7],"4,696.55"
same,MCP1/CCL2,[4]; [7],"3,045.61"
same,MIP-3a/CCL20,[4]; [7],"1,505.55*"
same,RANTES/CCL5,[4]; [7],"2,825.89*"
same,CD40,[4]; [8],639.15
same,IFNg,[4]; [8],295.07*
same,number of down-regulated differential proteins,"[4]; interleukin factors (Table 17), compared with the model group",four
